Data on one molecule can be found in US7939509B2, “Partial and full agonists of A1 adenosine receptors” (Gilead Sciences, Inc., priority 2002, dated 2011).

The test system of one data set is awake rats. As to the kind of experiment: Cardiovascular measurements (heart rate, blood pressure) by telemetry in awake rats. The data set is classed as in vivo, rat. As to the method:
FIG. 7 presents the time-course of the effect of Compound A on (A) heart rate and (B) mean arterial pressure in awake rats as measured by telemetry. Compound A was given at various does (1, 5, and 25 mg·kg) by oral gavage at time 0. Each data point is the mean of individual values from the number of experiments indicated in parenthesis. The initial transient (10 Minutes) increase in heart rate subsequent to the injection of vehicle or Compound A is due to the stress caused by handling of the animals.
The effects of Compound A on heart rate and blood pressure were determined in a separate group of animals as heart rate is very easily affected in the un-anesthetized animal by animal handling and blood sampling. Rats were instrumented with radiotelemetered transmitters (Data Sciences) at least 3 weeks prior to experimentation. The ECG, blood pressure and temperature were recorded and heart rate calculated using a Dataquest ART Gold system (Version 2.2; Data Sciences Intl). The system consisted of a transmitter, i.e., biopotential sensor (Model TL11M2-C50-PXT), receivers (Model RPC-1), a consolidation matrix (BCM 100), a personal computer (Compaq DeskPro Series 3574) and Dataquest 4 software. Heart rate, blood pressure and temperature were measured at 5-minute intervals. Each recording lasted 10 seconds and all cardiac cycles within this period were averaged.

In another data set the test system is Sprague-Dawley rats. Kind of data set: Acute effect on insulin, FFA and TG in rats fed chow or high fat diet for 2 weeks. The format is in vivo, rat. The following applies: 1 mg/kg oral gavage, 4 hr fast. As to the method:
FIG. 8 graphically illustrates the time-course of the effect of Compound A on serum (A) insulin, (B) free fatty acids (FFA), and (C) triglycerides (TG) in rats fed normal diet (ND) and high fat diet (HFD) for 2 weeks as discussed in Example 32. Animals were fasted for four hours before the experiment. Compound A was administered via oral gavage at a dose of 1 mg/kg. Values represent mean±SEM from number of animals indicated in the parenthesis for each group.
All experimental procedures were performed under a protocol approved by the IACUC (CV Therapeutics, Inc.) and in accordance with the recommendations set forth in the Guide for the Care and Use of Laboratory Animals published by the National Research Council. Male Sprague-Dawley rats (225-250 gm) with either one or two indwelling catheters (carotid and jugular) were obtained from Charles River Laboratories (Wilmington, Mass.). Animals were housed 1 per cage in a room maintained on a 12 h light/dark cycle (light on 06.00-18.00 h) under constant temperature (22-25° C.) and with ad libitum access to food and water. Rats on normal diet (Chow) were fed standard laboratory chow (12% fat, 60% carbohydrate, and 28% protein) throughout the study, while animals in the high fat (HF) diet group were given a diet (TD88137 from Harlan Teklad, Madison, Wis.) containing 42% fat, 43% carbohydrate, and 15% protein.
The anti-lipolytic effects of Compound A (see chemical name below) were studied in awake rats. On the day of the experiment, animals were put in metabolic cages and left undisturbed to acclimate to the environment for 1-2 hrs. An infusion set (21 G×¾″, 0.8×19 mm U.T.W., 3½″, 9 cm tubing, volume 0.15 ml) was connected to the arterial catheter for blood sampling. A 1% sodium citrate saline solution was used to flush the lines. A pre-treatment blood sample was obtained from each animal to determine baseline values for glucose, insulin, FFA and TG. Blood samples were collected into plasma and serum separator tubes (Becton Dickinson, Franklin Lakes, N.J.) at pre-determined time points. Oral glucose tolerance test (OGTT) was performed by giving 2 gm/kg of glucose load. Compound A was given via an oral gavage 15 minutes prior to the glucose load. For chronic experiments Compound A was administered twice a day via subcutaneous injection at a dose of 5 mg/kg for 2 weeks. An OGTT was performed at the end of two weeks at ˜2 hrs after the last dose of Compound A.
Compound A (2-{6-[((1R,2R)-2-hydroxycyclopentyl)amino]purin-9-yl}(4S,5S,2R,3R)-5-[(2-fluorophenylthio)methyl]oxolane-3,4-diol) was synthesized by the Department of Medicinal and Bio-Organic chemistry of CV Therapeutics, Inc. Sodium citrate was purchased from Sigma (St. Louis, Mo.). PEG 400 was purchased from VWR (by EMD Chemicals). Triton WR1339 was diluted in warm saline (˜37° C.) with frequent vortexing. Compound A was dissolved in. PEG 400, and then diluted with distilled water to make a 20% PEG drug solution. FFA and TGs were measured using commercial kits from Wako Chemicals, (Richmond, Va.). Glucose and Insulin were measured using commercial kits from Thermo Electron Corporation (Waltham, Mass.) and Crystal Chem (Downers Grove, Ill.), respectively.
All data are reported as mean±SEM. Statistical analysis of data from experiments with 2 treatment groups was performed using the unpaired Student's t-test. One way analysis of variance (ANOVA) followed by Newman-Keuls posthoc analysis was used for multiple comparisons. Data form OGTT was analyzed by calculating area under the curve (AUC) using prism graphpad software. Differences between/among treatment groups were considered to be significant when the probability of their occurrence by chance alone was <0.05.

The test system of data set [1] is rats fed high fat diet. Kind of data set: Oral glucose tolerance test after a single dose in high fat diet rats. The format is in vivo, rat. Conditions: 1 mg/kg oral gavage 15 min before 2 gm/kg glucose load, HF rats.
Method: Data is presented as mean±SEM from number of animals indicated in the parenthesis for each group. […] All experimental procedures were performed under a protocol approved by the IACUC (CV Therapeutics, Inc.) and in accordance with the recommendations set forth in the Guide for the Care and Use of Laboratory Animals published by the National Research Council. Male Sprague-Dawley rats (225-250 gm) with either one or two indwelling catheters (carotid and jugular) were obtained from Charles River Laboratories (Wilmington, Mass.). Animals were housed 1 per cage in a room maintained on a 12 h light/dark cycle (light on 06.00-18.00 h) under constant temperature (22-25° C.) and with ad libitum access to food and water. Rats on normal diet (Chow) were fed standard laboratory chow (12% fat, 60% carbohydrate, and 28% protein) throughout the study, while animals in the high fat (HF) diet group were given a diet (TD88137 from Harlan Teklad, Madison, Wis.) containing 42% fat, 43% carbohydrate, and 15% protein. […] On the day of the experiment, animals were put in metabolic cages and left undisturbed to acclimate to the environment for 1-2 hrs. An infusion set (21 G×¾″, 0.8×19 mm U.T.W., 3½″, 9 cm tubing, volume 0.15 ml) was connected to the arterial catheter for blood sampling. A 1% sodium citrate saline solution was used to flush the lines. A pre-treatment blood sample was obtained from each animal to determine baseline values for glucose, insulin, FFA and TG. Blood samples were collected into plasma and serum separator tubes (Becton Dickinson, Franklin Lakes, N.J.) at pre-determined time points. Oral glucose tolerance test (OGTT) was performed by giving 2 gm/kg of glucose load. Compound A was given via an oral gavage 15 minutes prior to the glucose load. […] Statistical analysis of data from experiments with 2 treatment groups was performed using the unpaired Student's t-test. One way analysis of variance (ANOVA) followed by Newman-Keuls posthoc analysis was used for multiple comparisons. Data form OGTT was analyzed by calculating area under the curve (AUC) using prism graphpad software. […]
Data set [2] has as its system rats fed high fat diet. As to the kind of experiment: Chronic 2 week treatment: fasting glucose, insulin, FFA, TG in high fat diet rats. The format is in vivo, rat. Conditions: 5 mg/kg SC for 2 weeks, HF rats.
Method: Animals were fasted overnight before taking samples. Compound A was given via SC injection for 2 weeks at a dose of 5 mg/kg. Data is presented as mean±SEM from number of animals indicated below each bar. […] Male Sprague-Dawley rats (225-250 gm) with either one or two indwelling catheters (carotid and jugular) were obtained from Charles River Laboratories (Wilmington, Mass.). Animals were housed 1 per cage in a room maintained on a 12 h light/dark cycle (light on 06.00-18.00 h) under constant temperature (22-25° C.) and with ad libitum access to food and water. Rats on normal diet (Chow) were fed standard laboratory chow (12% fat, 60% carbohydrate, and 28% protein) throughout the study, while animals in the high fat (HF) diet group were given a diet (TD88137 from Harlan Teklad, Madison, Wis.) containing 42% fat, 43% carbohydrate, and 15% protein. The anti-lipolytic effects of Compound A (see chemical name below) were studied in awake rats. On the day of the experiment, animals were put in metabolic cages and left undisturbed to acclimate to the environment for 1-2 hrs. An infusion set (21 G×¾″, 0.8×19 mm U.T.W., 3½″, 9 cm tubing, volume 0.15 ml) was connected to the arterial catheter for blood sampling. A 1% sodium citrate saline solution was used to flush the lines. A pre-treatment blood sample was obtained from each animal to determine baseline values for glucose, insulin, FFA and TG. Blood samples were collected into plasma and serum separator tubes (Becton Dickinson, Franklin Lakes, N.J.) at pre-determined time points. […] For chronic experiments Compound A was administered twice a day via subcutaneous injection at a dose of 5 mg/kg for 2 weeks. […] Statistical analysis of data from experiments with 2 treatment groups was performed using the unpaired Student's t-test. One way analysis of variance (ANOVA) followed by Newman-Keuls posthoc analysis was used for multiple comparisons. […] Differences between/among treatment groups were considered to be significant when the probability of their occurrence by chance alone was <0.05.
Data set [3] concerns rats fed high fat diet. Kind of data set: Oral glucose tolerance test after 2 week treatment in high fat diet rats. The format is in vivo, rat. The following applies: 5 mg/kg SC twice a day for 2 weeks, HF rats.
Method: Animals were fasted overnight before taking samples. Compound A was given twice daily via a SC injection for 2 weeks at a dose of 5 mg/kg. Data is presented as mean±SEM from number of animals indicated in the parenthesis for each group. […] All experimental procedures were performed under a protocol approved by the IACUC (CV Therapeutics, Inc.) and in accordance with the recommendations set forth in the Guide for the Care and Use of Laboratory Animals published by the National Research Council. Male Sprague-Dawley rats (225-250 gm) with either one or two indwelling catheters (carotid and jugular) were obtained from Charles River Laboratories (Wilmington, Mass.). Animals were housed 1 per cage in a room maintained on a 12 h light/dark cycle (light on 06.00-18.00 h) under constant temperature (22-25° C.) and with ad libitum access to food and water. Rats on normal diet (Chow) were fed standard laboratory chow (12% fat, 60% carbohydrate, and 28% protein) throughout the study, while animals in the high fat (HF) diet group were given a diet (TD88137 from Harlan Teklad, Madison, Wis.) containing 42% fat, 43% carbohydrate, and 15% protein. […] On the day of the experiment, animals were put in metabolic cages and left undisturbed to acclimate to the environment for 1-2 hrs. An infusion set (21 G×¾″, 0.8×19 mm U.T.W., 3½″, 9 cm tubing, volume 0.15 ml) was connected to the arterial catheter for blood sampling. A 1% sodium citrate saline solution was used to flush the lines. A pre-treatment blood sample was obtained from each animal to determine baseline values for glucose, insulin, FFA and TG. Blood samples were collected into plasma and serum separator tubes (Becton Dickinson, Franklin Lakes, N.J.) at pre-determined time points. Oral glucose tolerance test (OGTT) was performed by giving 2 gm/kg of glucose load. […] For chronic experiments Compound A was administered twice a day via subcutaneous injection at a dose of 5 mg/kg for 2 weeks. […] Data form OGTT was analyzed by calculating area under the curve (AUC) using prism graphpad software. […]
A further data set concerns C57BL/J6 mice. As to the kind of experiment: Hyperinsulinemic euglycemic clamp in C57BL/J6 mice on high fat diet for 12 weeks. The following applies: 2.5 mg/kg or 5.0 mg/kg ip 15 min prior to clamp. The format is in vivo, mouse.

Entries after “also recorded” stand apart in the source; their conditions may differ.

Method for C57BL/J6 mice: C57BL/J6 mice were maintained on normal chow or a HF diet (Bovine Lard, 23 wt/wt %, 44 energy % provided by the lard) for 12 weeks to induce insulin resistance. At the end of 12 weeks a hyperinsulinemic euglycemic clamp analysis was performed to measure insulin sensitivity in the absence and presence of Compound A. Compound A was given via an ip injection 15 minutes before the clamp protocol was started. After an overnight fast, glucose turnover studies were performed as described previously (6; 11). Briefly, animals were anesthetized; an infusion needle was placed in one of the tail veins. Thereafter, a bolus of insulin was given and a hyperinsulinemic clamp was started by continuous infusion of insulin. Blood samples were taken every 10 minutes (tail bleeding) to monitor plasma glucose levels. A variable infusion of 12.5% D-glucose (in PBS) solution was started at time 0 and adjusted to maintain blood glucose at ˜6.0 mM. When steady state glucose levels were reached (approximately 1 hour after start of the insulin infusion) a final blood sample was taken (for measurement of plasma insulin) and the hyperinsulinemic euglycemic clamp was terminated.

For `O[C@@H]1[C@H](O)[C@@H](CSc2ccccc2F)O[C@H]1n1cnc2c(N[C@@H]3CCC[C@H]3O)ncnc21` [Compound A, 2-{6-[((1R,2R)-2-hydroxycyclopentyl)amino]purin-9-yl}(4S,5S,2R,3R)-5-[(2-fluorophenylthio)methyl]oxolane-3,4-diol], in the data set with awake rats (25 mg/kg oral gavage), the “decrease in heart rate (calculated as area under the curve)” value is 13±1%. The “effect on heart rate on increasing the dose” value with awake rats (50 mg/kg (data not shown)) is “no further decrease”. Besides, in the data set on awake rats (1 and 5 mg/kg oral gavage), the “effect on heart rate” value is recorded as “did not have a significant effect”. The “effect on blood pressure” value in the data set with awake rats (at the doses used (1, 5, 25 mg/kg oral gavage)) is on record as “did not have any significant effect”. Moreover, in the data set with Sprague-Dawley rats (Chow rats), the “decrease in FFA concentration from 0 to 30 min” value was 0.24 ± 0.07 mM, the “decrease in TG concentration from 0 to 30 min” value worked out at 17 ± 3 mg/dL and the “decrease in insulin concentration from 0 to 30 min” value turned out to be 0.8 ± 0.32 ng/mL. Besides, in the data set with Sprague-Dawley rats (HF rats), the “decrease in FFA concentration from 0 to 30 min” value was 0.65 ± 0.1 mM, the “decrease in TG concentration from 0 to 30 min” value came out at 46 ± 15 mg/dL and the “decrease in insulin concentration from 0 to 30 min” value was determined as 2.37 ± 0.85 ng/mL. For the same molecule, in the data set on rats fed high fat diet [1], the “total glucose response area in OGTT” value is listed as “no differences” and the “total insulin response area (AUC) in OGTT” value was “significantly (p<0.05) decreased; also recorded: no different than the insulin response of chow-fed rats given vehicle”. In the data set with rats fed high fat diet [2], the “fasting FFA concentration vs placebo” value was “significantly lower”, the “fasting TG concentration vs placebo” value is reported as “significantly lower”, the “fasting glucose concentration vs placebo” value is on record as “no significant differences” and the “fasting insulin concentration vs placebo” value is reported as “significantly lower”. In the data set on rats fed high fat diet [3], the “glucose levels in OGTT” value is given as “did not vary” and the “total integrated plasma insulin levels (AUC) in OGTT” value is given as “significantly (p<0.05) lower”. The “insulin-mediated glucose disposal / glucose infusion rate (GIR) vs untreated HF mice” value with C57BL/J6 mice is recorded as “significant differences (p<0.01); also recorded: significantly greater (p<0.01)”.
